According to patent US10487093B2, “Heterocyclic compounds, in particular 2-oxo-4,4,5,5,6,6,7,7-octahydrobenzoxazole derivatives, and their use as antibacterial compounds” (priority 2016, dated 2019):
≈ marks a conversion by molar mass, not a printed value.

Key:
[1] = tested on: Escherichia coli ATCC 25922; assay: MIC, broth microdilution (CLSI) versus planktonic bacteria; format: cell-based; conditions: ATCC25922; Escherichia coli ATCC 25922; 16-20 h; mode of three independent experiments; read-out: MIC, Ec ATCC 25922
[2] = tested on: Acinetobacter baumannii ATCC 19606; assay: as above; format: cell-based; conditions: ATCC19606; Acinetobacter baumannii ATCC 19606; 16-20 h; mode of three independent experiments; read-out: MIC, Ab ATCC 19606
[3] = tested on: Haemophilus influenzae ATCC 49247; assay: as above; format: cell-based; conditions: ATCC49247; Haemophilus influenzae ATCC 49247; 16-20 h; mode of three independent experiments; read-out: MIC, Hi ATCC 49247
[4] = tested on: E. coli ATCC BAA-2452; assay: as above; format: cell-based; conditions: Escherichia coli ATCC BAA-2452; 16-20 h; mode of three independent experiments; read-out: MIC, Ec ATCC BAA 2452
[5] = tested on: Staphylococcus aureus ATCC 29213; assay: as above; format: cell-based; conditions: ATCC29213; Staphylococcus aureus ATCC 29213; 16-20 h; mode of three independent experiments; read-out: MIC, Sa ATCC 29213
[6] = tested on: Enterococcus faecalis ATCC 29212; assay: as above; format: cell-based; conditions: ATCC29212, 16-20 h, mode of three independent experiments, read-out: MIC, Ef ATCC 29212
[7] = tested on: human hepatic cell line (HepG2 ATCC HB-8065); assay: Human cell viability assay (CellTiter-Glo); conditions: Homo sapiens, HepG2, 24 h, read-out: IC50 (μg/mL) HepG2
[8] = tested on: E. coli MG1655; assay: MIC, broth microdilution (CLSI) versus planktonic bacteria; format: cell-based, Escherichia coli; conditions: Escherichia coli, MG1655, read-out: MIC, Ec MG1655 WT
[9] = tested on: Enterococcus faecium ATCC 19434; assay: as above; format: cell-based; conditions: ATCC19434, 16-20 h, mode of three independent experiments, read-out: MIC, Efm ATCC 19434
[10] = tested on: E. coli MG1655 D87G; format: cell-based, Escherichia coli; conditions: compared to the isogenic parent strain E. coli MG1655; D87G mutation on DNA gyrase subunit GyrA
[11] = tested on: E. coli NCTC 13476; assay: MIC, broth microdilution (CLSI) versus planktonic bacteria; format: cell-based; conditions: NCTC13476; Escherichia coli NCTC 13476; 16-20 h; mode of three independent experiments; read-out: MIC, Ec NCTC 13476
[12] = tested on: Pseudomonas aeruginosa ATCC 27853; assay: as above; format: cell-based; conditions: ATCC27853; Pseudomonas aeruginosa ATCC 27853; 16-20 h; mode of three independent experiments; read-out: MIC, Pa ATCC 27853
[13] = tested on: Acinetobacter baumannii NCTC 13420; assay: as above; format: cell-based; conditions: NCTC13420; Acinetobacter baumannii NCTC 13420; 16-20 h; mode of three independent experiments; read-out: MIC, Ab NCTC 13420
[14] = tested on: Streptococcus pneumoniae ATCC 49619; assay: as above; format: cell-based; conditions: ATCC49619; Streptococcus pneumoniae ATCC 49619; 16-20 h; mode of three independent experiments; read-out: MIC, Sp ATCC 49619
[15] = tested on: Enterobacter cloacae NCTC 13406; assay: as above; format: cell-based; conditions: NCTC13406; Enterobacter cloacae NCTC 13406; 16-20 h; mode of three independent experiments; read-out: MIC, Ecl NCTC 13406
[16] = tested on: fluoroquinolone-resistant Enterococcus faecium ATCC 700221; assay: as above; format: cell-based; conditions: ATCC700221, 16-20 h, mode of three independent experiments, read-out: MIC, Efm ATCC 700221
[17] = tested on: E. coli MG1655 S83L; format: cell-based, Escherichia coli; conditions: compared to the isogenic parent strain E. coli MG1655; S83L mutation on DNA gyrase subunit GyrA

| Compound | MIC [1] | MIC [2] | MIC [3] | MIC [4] | MIC [5] | MIC [6] | IC50 [7] | MIC [8] | MIC [9] | Fold increase in MIC, E. coli MG1655 D87G [10] | MIC [11] | MIC [12] | MIC [13] | MIC [14] | MIC [15] | MIC [16] | Fold increase in MIC, E. coli MG1655 S83L [17] |
| --- | --- | --- | --- | --- | --- | --- | --- | --- | --- | --- | --- | --- | --- | --- | --- | --- | --- |
| N#Cc1ccc2ccc(=O)n(CCN[C@@H]3CC[C@@H]4[C@@H](C3)OC(=O)N4c3ccc4c(n3)NC(=O)CO4)c2c1 [Compound 59, 1-(2-{[(3aR,6R,7aR)-2-oxo-3-{3-oxo-2H,3H,4H-pyrido[3,2-b][1,4]oxazin-6-yl}-octahydro-1,3-benzoxazol-6-yl]amino}ethyl)-2-oxo-1,2-dihydroquinoline-7-carbonitrile] | < 1 µg/mL | < 1 µg/mL | < 1 µg/mL | < 1 µg/mL | < 1 µg/mL | < 1 µg/mL | 10 to 100 µg/mL (≈ 20 to 200 µM) | < 1 µg/mL | < 1 µg/mL | 1 fold | < 1 µg/mL | < 1 µg/mL | < 1 µg/mL | < 1 µg/mL | < 1 µg/mL | < 1 µg/mL | 1 fold |
| COc1ccc2ccc(=O)n(CCN[C@H]3CC[C@H]4[C@H](C3)OC(=O)N4c3ccc4c(n3)NC(=O)CS4)c2n1 [Compound 61, 1-(2-{[(3aS,6S,7aS)-2-oxo-3-{3-oxo-2H,3H,4H-pyrido[3,2-b][1,4]thiazin-6-yl}-octahydro-1,3-benzoxazol-6-yl]amino}ethyl)-7-methoxy-1,2-dihydro-1,8-naphthyridin-2-one] | < 1 µg/mL | < 1 µg/mL | < 1 µg/mL | < 1 µg/mL | < 1 µg/mL | < 1 µg/mL | 10 to 100 µg/mL (≈ 19.1 to 191 µM) | < 1 µg/mL | < 1 µg/mL | 1 fold | < 1 µg/mL | < 1 µg/mL | < 1 µg/mL | < 1 µg/mL | < 1 µg/mL | < 1 µg/mL | 1 fold |
| N#Cc1cnc2ccc(=O)n(CCN[C@H]3CC[C@H]4[C@H](C3)OC(=O)N4c3ccc4c(n3)NC(=O)CS4)c2c1 [Compound 77, 5-(2-{[(3aS,6S,7aS)-2-oxo-3-{3-oxo-2H,3H,4H-pyrido[3,2-b][1,4]thiazin-6-yl}-octahydro-1,3-benzoxazol-6-yl]amino}ethyl)-6-oxo-5,6-dihydro-1,5-naphthyridine-3-carbonitrile] | < 1 µg/mL | < 1 µg/mL | < 1 µg/mL | < 1 µg/mL | < 1 µg/mL |  | > 100 µg/mL | < 1 µg/mL | < 1 µg/mL | 1 fold | < 1 µg/mL | 1 to 10 µg/mL (≈ 1.93 to 19.3 µM) | < 1 µg/mL | < 1 µg/mL | < 1 µg/mL |  | 1 fold |
| COc1cnc2ccc(=O)n(CCN[C@@H]3CC[C@@H]4[C@@H](C3)OC(=O)N4c3ccc4c(n3)NC(=O)CO4)c2n1 [Compound 87, (3aR,6R,7aR)-6-[(2-{3-methoxy-6-oxo-5H,6H-pyrido[2,3-b]pyrazin-5-yl}ethyl)amino]-3-{3-oxo-2H,3H,4H-pyrido[3,2-b][1,4]oxazin-6-yl}-octahydro-1,3-benzoxazol-2-one] | < 1 µg/mL | < 1 µg/mL | < 1 µg/mL | < 1 µg/mL | < 1 µg/mL | < 1 µg/mL | 10 to 100 µg/mL (≈ 19.7 to 197 µM) | < 1 µg/mL | 1 to 10 µg/mL (≈ 1.97 to 19.7 µM) | 2 fold | < 1 µg/mL | < 1 µg/mL | < 1 µg/mL | < 1 µg/mL | < 1 µg/mL |  | 2 fold |
| COc1ccc2ccc(=O)n(CCN[C@H]3CC[C@H]4[C@H](C3)OC(=O)N4c3ccc4c(n3)NC(=O)CO4)c2c1 [Compound 102, 1-(2-{[(3aS,6S,7aS)-2-oxo-3-{3-oxo-2H,3H,4H-pyrido[3,2-b][1,4]oxazin-6-yl}-octahydro-1,3-benzoxazol-6-yl]amino}ethyl)-7-methoxy-1,2-dihydroquinolin-2-one] | < 1 µg/mL | < 1 µg/mL |  | < 1 µg/mL | < 1 µg/mL | < 1 µg/mL | 10 to 100 µg/mL (≈ 19.8 to 198 µM) | < 1 µg/mL | < 1 µg/mL | 2 fold | < 1 µg/mL | 1 to 10 µg/mL (≈ 1.98 to 19.8 µM) | < 1 µg/mL | < 1 µg/mL | < 1 µg/mL | < 1 µg/mL | 2 fold |
